PubChem BioAssay (NCI)
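Where inhibition never reached the appropriate level, the endpoint shown equals the highest concentration tested. Otherwise, values were interpolated linearly from a five-concentration, 48-hour dose response in 96-well plates. TGI: total growth inhibition.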

How the values were obtained:
Test in all cases: NCI anticancer screen, dose series, 48 h
[1] = tested on: A549 NSCLC
[2] = tested on: UACC-257 melanoma
[3] = tested on: SK-MEL-28 melanoma
[4] = tested on: K-562 leukemia
[5] = tested on: EKVX NSCLC
[6] = tested on: HOP-62 NSCLC
[7] = tested on: MALME-3M melanoma
[8] = tested on: LOX IMVI melanoma
[9] = tested on: HOP-92 NSCLC
[10] = tested on: NCI/ADR-RES ovarian
[11] = tested on: T-47D breast
[12] = tested on: HCT-15 colon
[13] = tested on: MOLT-4 leukemia
[14] = tested on: TK-10 renal
[15] = tested on: MCF7 breast
[16] = tested on: SW-620 colon
[17] = tested on: ACHN renal
[18] = tested on: NCI-H460 lung
[19] = tested on: SF-268 CNS
[20] = tested on: HL-60(TB) leukemia

SMILES | TGI [1] | TGI [2] | TGI [3] | TGI [4] | TGI [5] | TGI [6] | TGI [7] | TGI [8] | TGI [9] | TGI [10] | TGI [11] | TGI [12] | TGI [13] | TGI [14] | TGI [15] | TGI [16] | TGI [17] | TGI [18] | TGI [19] | TGI [20]
CN1[C@@H]2C[C@@H](OC(=O)[C@H](CO)c3ccccc3)C[C@H]1[C@@H]1O[C@@H]12 | > 100 µM | > 100 µM | > 100 µM | > 100 µM | > 100 µM | > 100 µM | > 100 µM | > 100 µM | > 100 µM | > 100 µM | > 100 µM | > 100 µM | > 100 µM | > 100 µM | > 100 µM | > 100 µM | > 100 µM |  |  | 
CN1COCc2c1ccc1cc3ccc4c(c3nc21)COCN4S(C)(=O)=O | > 100 µM | > 100 µM | > 100 µM | > 100 µM | > 100 µM | > 100 µM | > 100 µM | > 100 µM | > 100 µM | > 100 µM | > 100 µM | > 100 µM | > 100 µM | > 100 µM | > 100 µM | > 100 µM | > 100 µM | > 100 µM | > 100 µM | 
Cc1ccc(S(=O)(=O)NC(=O)N[C@@H](Cc2cnc[nH]2)C(=O)O)cc1 | > 100 µM | > 100 µM | > 100 µM | > 100 µM |  | > 100 µM | > 100 µM | > 100 µM | > 100 µM | > 100 µM | > 100 µM | > 100 µM | > 100 µM | > 100 µM | > 100 µM | > 100 µM | > 100 µM | > 100 µM | > 100 µM | > 100 µM
O=C1/C(=C/c2ccc(Cl)cc2)CSc2ccccc21 | > 100 µM | 37.4 µM | 44.1 µM | 92.1 µM |  | 63.9 µM | 74.4 µM | 6.21 µM | 90.3 µM | 34.5 µM | 58.3 µM | > 100 µM | > 100 µM | > 100 µM | 9.35 µM | > 100 µM |  | > 100 µM | 73 µM | 64.6 µM
NNC(=O)CSc1nc2ccccc2c(=O)n1N | > 100 µM | > 100 µM | > 100 µM | > 100 µM | > 100 µM |  | > 100 µM | > 100 µM | 57.7 µM | > 100 µM | > 100 µM | > 100 µM | > 100 µM | 40.9 µM | > 100 µM | > 100 µM | 99.1 µM | > 100 µM | > 100 µM | 
COC1C=COC2(C)Oc3c(C)c(O)c4c(O)c(c(C5SCCS5)c(O)c4c3C2=O)NC(=O)C(C)=C/C=C\C(C)C2OC(C)(C)OC(C2C)C(C)C(OC(C)=O)C1C (centres undefined) | 22.6 µM | 7.89 µM | > 100 µM | > 100 µM |  | 74.4 µM | 36.5 µM | 28.3 µM | 24.9 µM | > 100 µM | > 100 µM | 38.4 µM | > 100 µM | 24.8 µM | 7.77 µM | > 100 µM | 6.53 µM | 63.2 µM | 29.3 µM | 17.4 µM
CC(=O)OCC1OC(n2c3c(cc(C#N)c2=S)CCCCC3)C(OC(C)=O)C(OC(C)=O)C1OC(C)=O (centres undefined) | > 100 µM | > 100 µM | > 100 µM | > 100 µM |  | > 100 µM | > 100 µM | > 100 µM | > 100 µM | > 100 µM | > 100 µM | > 100 µM | > 100 µM | > 100 µM | > 100 µM |  | > 100 µM | > 100 µM | > 100 µM | > 100 µM
CCC1(C)C=Cc2c(cc(O)c3c(=O)c4ccccc4n(C)c23)O1 (centres undefined) | > 10 µM | > 10 µM | > 10 µM | > 10 µM | > 10 µM | > 10 µM | > 10 µM | > 10 µM | > 10 µM | > 10 µM | > 10 µM | > 10 µM | > 10 µM | > 10 µM | > 10 µM | > 10 µM | > 10 µM | > 10 µM | > 10 µM | 
Cc1cc(S(=O)(=O)Nc2nc3cc(-c4ccc(Cl)cc4)sc3c(=O)n2N)c(S)cc1Cl | > 100 µM | > 100 µM | > 100 µM | > 100 µM | > 100 µM | > 100 µM | > 100 µM | > 100 µM | > 100 µM | > 100 µM | > 100 µM | > 100 µM | 55.3 µM | > 100 µM | > 100 µM | > 100 µM | 98.7 µM | > 100 µM | > 100 µM | 
CC(C)=CCNc1ncnc2c1ncn2CCC#N | > 100 µM |  | > 100 µM | > 100 µM |  | > 100 µM | > 100 µM | > 100 µM | > 100 µM | > 100 µM | > 100 µM | > 100 µM | > 100 µM | > 100 µM | > 100 µM | > 100 µM | > 100 µM | > 100 µM | > 100 µM | > 100 µM
